From patent publication US12268739B2, “Use of toll-like receptor 2 (TLR-2) agonist for modulating human immune response” (Children's Medical Center Corporation, priority 2018, dated 2025)
Entries after “also recorded” stand apart in the source; their conditions may differ.

Experiments:
human adult PBMCs = assay: Cytokine production by stimulated human adult PBMCs (ELISA / multiplex); format: cell-based
Method: ELISAs and Multiplex-Analyte Assays. Supernatants derived from human PBMCs stimulations were assayed by ELISA for TNF and IL-6 (ThermoFisher Scientific; Waltham, MA, USA). Cytokine and chemokine expression profiles (e.g., IFNγ, IL-9, IL-10, IL-12 (p70), IL-13, IL-1β, IL-23, IL-27, IL-28A, IL-33, IL-6, MIP-3α/CCL20, and TNF) in cell culture supernatants were measured using a customized Milliplex® Human Th17 Magnetic Bead Panel according to the manufacturer's instructions (Millipore, Chicago, IL, USA). Assays were read and analyzed on the Luminex® 100/200TM System and xPOTENT® software (Luminex, Austin, TX). A minimum threshold was set at the minimum detectable concentration for each individual assay, defined as three standard deviations above the mean background.
PBMCs were isolated from blood using a Ficoll density gradient. PBMCs either used fresh or were stored at 5×10^7 cells per vial in 1 mL RPMI containing 20% autologous plasma and 10% DMSO at −80° C. until use. […] PBMCs isolated from human adult donors or THP1-NF-κB cells were resuspended at a concentration of 10^5 cells/200 μl of RPMI supplemented with 10% of platelet-poor plasma or THP1 culture medium, respectively. […] After 24 hours of incubation (37° C., 5% CO2), plates were spun down (500×g, room temperature, 5 minutes) and supernatants were harvested for further analysis.

THP1-NF-κB cells = assay: THP1-NF-κB cell stimulation for 24 hours, secreted luciferase luminescence; format: cell-based, human
Method: THP-1 Cell Line and Culture Conditions. The THP1-Lucia™ cell line was obtained from Invivogen (San Diego, CA). THP1-Lucia cells, which are human monocytic cells derived from the blood of a child with leukemia, contain an NF-kB-inducible Luc reporter construct. This allows NF-kB activation to be measured by quantifying the luminescence from the secreted luciferase enzyme. THP1-Lucia cells were cultured in RPMI 1640 supplemented with 10% non-heat inactivated fetal bovine serum (FBS), 10 mM HEPES, 1.0 mM sodium pyruvate, 50 ug/ml Pen-Strep, and 100 ug/mL Normocin™. Once cultured, the cells were stored in a 37° C. incubator with 5% CO2 and a humidified atmosphere. Cells were passaged every 2-3 days and not allowed to exceed a concentration of 2.0×10^6 cells/ml media.
PBMCs were isolated from blood using a Ficoll density gradient. PBMCs either used fresh or were stored at 5×10^7 cells per vial in 1 mL RPMI containing 20% autologous plasma and 10% DMSO at −80° C. until use. Stimulation plates were prepared by transferring 0.66 μl of DMSO-dissolved compounds (30 or 7.5 mM) to each well of a round bottom 96-well plate. PBMCs isolated from human adult donors or THP1-NF-κB cells were resuspended at a concentration of 10^5 cells/200 μl of RPMI supplemented with 10% of platelet-poor plasma or THP1 culture medium, respectively. 200 μl of the cell suspension were transferred to each well resulting in a final compound concentration of 100 or 25 μM. After 24 hours of incubation (37° C., 5% CO2), plates were spun down (500×g, room temperature, 5 minutes) and supernatants were harvested for further analysis.

C57BL/6 mice = assay: Mouse immunization with rHA, anti-rHA IgG titers by ELISA; format: in vivo; conditions: adult C57BL/6 mice, rHA formulated with compound (100 nmol) i.m., prime Day 0, boost Day 28, versus rHA alone; listed as 080
Method: C57BL/6 mice were obtained from Charles River Laboratories and housed in specific pathogen-free conditions in the animal research facilities at Boston Children's Hospital.
For immunization experiments, adult mice were immunized intramuscularly (i.m.) in the right posterior thigh with 50 μl of vaccine containing 0.33 μg of each of the following recombinant influenza virus hemagglutinins (rHA): A/Michigan/45/2015 (H1N1), A/Hong Kong/4801/2014 (H3N2), and B/Brisbane/60/2008, contained in the 2016-2017 formulation of the FluBlok vaccine (Protein Sciences Corp.). Mice were immunized with a prime-boost schedule (two injections four weeks apart). Vaccine in all experimental groups was formulated with 10% (v/v) DMSO (except for the groups immunized with the small molecules since they were dissolved in DMSO) and 5% (v/v) Tween-80. As indicated for specific experimental groups, vaccine was also formulated with Aluminium hydroxide (100 μg) or compound 080 (100 nmol, final DMSO concentration 10%). Serum was collected 28 days post-prime (pre-boost blood sample) and 14 days post-boost for antibody detection. rHA-specific IgG were quantified by ELISA. […] The optical density was read at 450 nm Versamax microplate reader with SoftMax Pro Version 5 (both from Molecular Devices) and endpoint titers were calculated using as cutoff three times the optical density of the background.

human TLR2 = biological target: T1, human TLR2 (Homo sapiens, UniProt O60603); assay: HEK293 assay for human TLR2 selectivity (NF-κB/SEAP); format: cell-based; conditions: 18-24 hours stimulation, titratable
T1 construct: expressed in transfected cells; host or cells: HEK-Blue (human embryonic kidney) cells with an NF-kB-inducible SEAP reporter
Method: HEK293 assay for human TLR2 and TLR8 selectivity: Human embryonic kidney (HEK) 293 cells expressing human TLR2 or TLR8 with an NF-κB-responsive secreted embryonic alkaline phosphatase (SEAP) reporter gene were obtained from Invivogen (San Diego, CA). Cells were maintained in RPMI or DMEM with 10% heat inactivated-FBS and selection antibiotics per the manufacturer's instructions. Cells were plated at 5×10^5 cells/96-well and stimulated with indicated agonist(s) for 24 hours. Supernatants were harvested and analyzed for NF-κB/SEAP activation using the QuantiBlue kit (Invivogen). Values are expressed as fold change in OD650 over vehicle-only treated samples.

[1] = human adult PBMCs, 24 hours, compounds at 100 µM (FIG. 7), ELISA, median

T1 sequence (O60603 21-784): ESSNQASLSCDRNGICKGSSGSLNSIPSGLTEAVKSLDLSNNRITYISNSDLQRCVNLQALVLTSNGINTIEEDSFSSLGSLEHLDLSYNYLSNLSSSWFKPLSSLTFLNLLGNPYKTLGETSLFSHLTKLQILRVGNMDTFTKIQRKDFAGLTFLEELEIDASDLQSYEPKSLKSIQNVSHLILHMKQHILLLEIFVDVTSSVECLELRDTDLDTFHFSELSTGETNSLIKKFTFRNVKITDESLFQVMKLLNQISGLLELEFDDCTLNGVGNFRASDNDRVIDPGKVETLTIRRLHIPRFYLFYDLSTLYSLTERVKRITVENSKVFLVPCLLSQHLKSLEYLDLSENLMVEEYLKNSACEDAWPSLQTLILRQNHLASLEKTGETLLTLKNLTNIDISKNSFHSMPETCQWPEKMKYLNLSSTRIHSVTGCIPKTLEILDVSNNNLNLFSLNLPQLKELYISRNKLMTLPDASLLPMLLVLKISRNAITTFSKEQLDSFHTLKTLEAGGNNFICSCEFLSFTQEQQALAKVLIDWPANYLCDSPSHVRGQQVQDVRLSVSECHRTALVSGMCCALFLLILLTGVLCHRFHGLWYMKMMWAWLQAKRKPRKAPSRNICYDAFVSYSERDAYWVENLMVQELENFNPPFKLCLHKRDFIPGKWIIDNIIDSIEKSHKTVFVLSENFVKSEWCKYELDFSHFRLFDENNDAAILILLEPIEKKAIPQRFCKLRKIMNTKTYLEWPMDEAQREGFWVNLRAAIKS

## CNC(=O)c1c(NC(=O)c2ccc(S(=O)(=O)N(C)C)cc2)sc2c1CCC2 [Compound 80]
Human adult PBMCs; 384 and 96 well assay
  Activation of human adult PBMCs: induced activation
Human adult PBMCs; 24 hours, 100 μM, ELISA
  Cytokine production (TNF and IL-6) from human adult PBMCs: induces cytokine production
Human adult PBMCs; [1]
  Adult PBMCs (median ng/ml) IL-6 (N = 7): 1.868 ng/mL
  Adult PBMCs (median ng/ml) TNFa (N = 13): 0.1958 ng/mL
THP1-NF-κB cells; 384 and 96 well assay
  Activation of THP1 cells: induced activation of THP1 cells
THP1-NF-κB cells; NF-κB-dependent luminescence, compound at 25 uM, 24 hours
  THP1 cells (relative luminescence units, N = 4) Comp at 25 uM: 8280 relative luminescence units
THP1-NF-κB cells; NF-κB-dependent luminescence, compound at 100 uM, 24 hours
  THP1 cells (relative luminescence units, N = 4) Comp at 100 uM: 12174 relative luminescence units
C57BL/6 mice
  Adjuvant activity in vivo (anti-rHA IgG titers): exerts adjuvant activity in vivo; also recorded: higher antibody titers; also recorded: demonstrates in vivo adjuvanticity
Human TLR2
  TLR2 activation in HEK TLR2 cells (SEAP): induced TLR2 specific activation
